From patent publication US20070060636A1, “High enantiomeric purity dexanabinol for pharmaceutical compositions” (priority 2002, published 2007)
Where a name gives a salt, the structure may show the parent alone. Read-outs that look alike come from different tables or passages of the source.

Experiments:
[1] = tested on: intra-ocular pressure (IOP); assay: IOP lowering after topical administration in normotensive rabbits; format: in vivo, New Zealand White albino rabbits; conditions: commercially available drugs, topical
Method: New Zealand White albino rabbits weighing 2-2.5 kg were acclimatized in our animal facility for at least a week prior to IOP measurements. Drug, saline and blank-vehicle groups (n=8-12 animals per group) were included. In most experiments, 50 μl drops were applied at 09:00 and measurements were taken 1 hour, 3, 5, and 7 hours later. Baseline IOP was individualized for each animal and time point prior to drug testing. IOP was measured by a Digilab Pneumatonometer, Model 30R. ΔIOP was calculated by subtracting the baseline IOP from IOP value measured after drug application at a corresponding time point. Maximal ΔIOP and area under the ΔIOP×hours curve (AUC) were calculated and averaged for each group. Data of IOP, AUC, blood pressure and toxicity were analyzed by the Wilcoxon-Rank test.

[2] = tested on: rats; conditions: conscious rats; cited from earlier work
[3] = cited from earlier work
[4] = tested on: rat model; conditions: cited from earlier work
[5] = i.v.; cited from earlier work
[6] = threshold for psychomimetic effects in humans; format: in vivo; conditions: worked out from THC threshold and 200 fold psychoactivity
Text: Psychoactive cannabinoids have a variety of pharmacological effects that are evoked through interactions with the CB1 receptors predominantly expressed in the brain. The central nervous system effects that occur after in vivo exposure to HU-210 include euphoria, hypokinesia, hypothermia, anti-nociception, and catalepsy. Hypokinesia, hypothermia, anti-nociception, and catalepsy are the activities that form the basis of the “Tetrad assay” of CB1 mediated activity. […] The threshold for psychomimetic effects of oral THC in humans is in the range of 10-15 mg THC in an adult, i.e from about 0.16 to about 0.25 mg THC/kg body weight for adults of approximately 60 kg (“Cannabis and Cannabinoids, pharmacology, toxicology and therapeutic potential” edited by Grotenhermen and Russo, the Haworth Integrative Healing Press; Chapter 31 pp 345 and 351).

[7] = tested on: rats; conditions: 10 μg/kg i.v., cited from earlier work
[8] = oral, adult; cited from earlier work

In the case of `CC(C)(C)NC[C@H](O)COc1nsnc1N1CCOCC1` [Timolol, reference compound], the “AUC (ΔIOP×hours)” value [1] is reported as 7.3±3.0 mmHg×Hours.

In the case of `CC(C)(C)NC[C@H](O)COc1cccc2c1CCCC2=O` [levobunolol HCl, reference compound], the “AUC (ΔIOP×hours)” value [1] is reported as 13.3±1.5 mmHg×Hours.

In the case of `CCCCCCC(C)(C)c1cc(O)c2c(c1)OC(C)(C)[C@@H]1CC=C(CO)C[C@@H]21` [HU-210, 1,1-dimethylheptyl-(3R,4R)-7-hydroxy-Δ^6-tetrahydrocannabinol], the “bradycardia still present after drug administration” value [2] is listed as ≥ 8 h, the “duration of hypotensive effects” value [2] is listed as 2 h and the “psychoactivity in animals relative to Δ^9-THC” value ([3]; in vivo) is listed as “approximately 200 fold”. The “psychoactivity compared with HU-211” value ([3]; series of animal tests) was “a thousand times more psychoactive”, the “psychoactivity compared with Δ^9-THC” value ([3]; series of animal tests) was “a hundred times more psychoactive” and the PaCO2 after drug ([4]; from 32±0.7) was 45.7±1.6 mmHg. For the same molecule, the “mean arterial blood pressure after drug” value ([4]; from 142±1) was 105±6 mm Hg, the “heart rate after drug” value ([4]; from 484±6) was 232±18 beats/min and the “change in cerebral glucose use” value ([4]; frontal cortex) was −19%. The “cerebral glucose use after drug” value ([4]; frontal cortex, from 69±1) was 55±3 μmol.100 g−1.min-1, the “change in cerebral glucose use” value ([4]; occipital cortex) was −31% and the “cerebral glucose use after drug” value ([4]; occipital cortex, from 60±1) was 41±2 μmol.100 g−1.min−1. For the same molecule, the “lowest administered dose at which hypotensive effect is detected” value [5] was 1 µg/kg, the “maximal tolerated dose (theoretical)” value [6] was “less than 1.25 μg/kg body weight” and the “reduction of mean blood pressure” value [7] was 57±5 mm Hg. The “systemic vascular resistance index” value [7] was “without significantly affecting” and the “cardiac index after drug” value ([7]; from 37±1) was 23±1 mL/min/100 g.

For `CCCCCc1cc(O)c2c(c1)OC(C)(C)[C@@H]1CCC(C)=C[C@@H]21` [THC, Δ^9-tetrahydrocannabinol], the “threshold for psychomimetic effects” value [8] is listed as 10 to 15 mg.
